Measured values published in patent US7232827B2, “Heteroaryl substituted 2-pyridinyl and 2-pyrimidinyl-6,7,8,9-tetrahydropyrimido[1,2-a]pyrimidin-4-one derivatives” (Sanofi-Aventis, priority 2002, dated 2007).

Molecular target: GSK3β (Homo sapiens, UniProt P49841)
Assay: Inhibitory activity against GSK3β (33P-ATP phosphorylation of prephosphorylated GS1 peptide)
Format: biochemical
Conditions: single compounds; first or second protocol not specified
Protocol: Two different protocols can be used.
In a first protocol: 7.5 μM of prephosphorylated GS1 peptide and 10 μM ATP (containing 300,000 cpm of 33P-ATP) were incubated in 25 mM Tris-HCl, pH 7.5, 0.6 mM DTT, 6 mM MgCl2, 0.6 mM EGTA, 0.05 mg/ml BSA buffer for 1 hour at room temperature in the presence of GSK3β (total reaction volume: 100 microliters).
In a second protocol: 4.1 μM of prephosphorylated GS1 peptide and 42 μM ATP (containing 260,000 cpm 33P-ATP) were incubated in 80 mM Mes-NaOH, pH 6.5, 1 mM Mg acetate, 0.5 mM EGTA, 5 mM 2-mercaptoethanol, 0.02% Tween 20, 10% glycerol buffer for 2 hours at room temperature in the presence of GSK3β.
Inhibitors were solubilised in DMSO (final solvent concentration in the reaction medium, 1%).
The reaction was stopped with 100 microliters of a solution made of 25 g polyphosphoric acid (85% P2O5), 126 ml 85% H3PO4, H2O to 500 ml and then diluted to 1:100 before use. An aliquot of the reaction mixture was then transferred to Whatman P81 cation exchange filters and rinsed with the solution described above. Incorporated 33P radioactivity was determined by liquid scintillation spectrometry.
The phosphorylated GS-1 peptide had the following sequence: NH2-[…](P)EDEE-COOH.

GSK3β, sequence (P49841 whole entry, species assumed): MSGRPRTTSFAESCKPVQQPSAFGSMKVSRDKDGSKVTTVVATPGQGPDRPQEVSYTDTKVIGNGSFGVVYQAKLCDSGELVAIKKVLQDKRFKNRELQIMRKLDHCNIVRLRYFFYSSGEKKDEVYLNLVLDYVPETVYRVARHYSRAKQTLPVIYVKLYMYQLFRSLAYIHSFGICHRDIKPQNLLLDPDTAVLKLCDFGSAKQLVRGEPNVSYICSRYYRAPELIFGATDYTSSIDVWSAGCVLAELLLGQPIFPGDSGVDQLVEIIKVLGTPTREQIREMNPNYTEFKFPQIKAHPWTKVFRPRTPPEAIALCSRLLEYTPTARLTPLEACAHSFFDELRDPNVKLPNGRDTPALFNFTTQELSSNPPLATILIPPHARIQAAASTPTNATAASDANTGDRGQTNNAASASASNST

| SMILES | IC50 [µM] |
| --- | --- |
| Cc1ccc2c(n1)CC(CN1CC(C)(C)Cn3c1nc(-c1ccncc1)cc3=O)C2 (racemic) [compound 4 of table 1A, (+/−)-7,7-Dimethyl-9-(2-methyl-6,7-dihydro-5H-[1]pyrindin-6-ylmethyl) -2-(pyridin-4-yl)-6,7,8,9-tetrahydro-pyrimido[1,2-a]pyrimidin-4-one] | 0.008 |
| CC1CCn2c(nc(-c3ccncn3)cc2=O)N1CC1COc2ccccc2O1 (centres unmarked) [compound 8 of table 2B, 9-(2,3-Dihydro-benzo[1,4]dioxin-2-ylmethyl)-8-methyl-2-pyrimidin-4-yl-6,7,8,9-tetrahydro-pyrimido[1,2-a]pyrimidin-4-one] | 0.015 |
